Like-named read-outs stand apart in the source and are kept apart here.
Key:
NK1 [1] = target: T1, NK1 (Homo sapiens, UniProt P14210); assay: SPR fragment library screening against NK1; assay type: binding; design: made in house; host or cells: Pichia pastoris; conditions: for Ranking order: based on fragment screening, rank among the 71 NK1 hits (ESI Tables S3-S7); for SPR response: normalised relative value against NK1
Procedure: Supplementary Materials and Methods
Fragment library screening and data analysis
Met567 (soluble truncated f ragment of the MET ectodomain, residues 25- 567), NK1 and t he SPH domain were immobilized on CM5 chips by amine coupling. NK1 was diluted into 10 m M phosphate pH 7.0 and the SPH domain into 10 mM acetate pH 5.5 to a final concentration of 2.5 μM and 1 μM, respectively, for coupling. The immobilization wizard within the Biacore T100 software was set to “aim for immobiliz ed level” of 8000 RU to achieve complete saturation of the chip surface.
W ith minor deviations, the procedure and conditions outlined below were used f or a ll screening s of an in-house fragment library of 1338 members against individual target proteins. The running buffer was PBS pH 7.4, 0.05% Tween 20, 0.25% DMSO (1% DMSO for Met567). Fragments were stored as 100 mM stock solutions in DMSO. Prior to screening, fragment samples were diluted to 500 μM (1 mM f or Met567) in running buffer.
Screening was performed in 96- we ll plates at a flow rate of 30 μl min-1 with 1 min sample injection f ollowed by dissociation f or 1 min and surf ace regeneration using 1 M NaCl f or 30 […]
post-regeneration baseline exceeded the pre- sample baseline by more than 10 RU, a second regeneration cycle with 50% ethylene glycol was used. In order to be able to correct for small variations in DMSO concentration between samples, eight solvent samples ranging from 0.012 to 1.5% DMSO were injected every 40th cycle. To monitor the binding capacity of the NK1, SPH and Met567 surfaces throughout the screening, injections of 500 μM HEPES (NK1), 0.25 μM Met567 (SPH) and 0.2 μM NK1 and 1% DMSO (Met567) were carried out every 40th cycle. The flow cell temperature was 25°C. NK1 and the SPH domain were immobilized on the same chip (channels 2 and 3 respectively) and were theref ore screened in parallel. Met567 was screened separately and results are published in an accompanying paper (W in t er et al. 2015, in revision).
For data analysis, fir st, all responses were reference and solvent corrected. 1 Next, equilibrium binding for every fragment was determined and hits established by applying several filters: sensorgram shape, upper and lower threshold. Typical sensorgrams from fragment screening show “square curves” in SPR due to the fast on and off rates and fragments not showing this response were discarded from further analysis. Binding levels are represented as response units (RU) but the SPR signal is a convolution of multiple parameters including target coupling density, target -binding activity, target molecular weight and molecular weight of each injected fragment. To be able to identif y hits accurately and to be able to compare responses between different plates and targets, data were normalised against these factors. First the theoretical maximum response for each fragment was calculated using equation 1:
RRmmm = CCCCCCCC ddCdCdd× MMffmCmdCd (Equation 1)
This RUmax value diff ers for each protein target because it depends on the molecular weight of the protein and the amount of protein immobilized on the chip (coupling density). The RUmax was then used to calculate the normalised relative SPR response:
NNNNNNNNNN NNNNr NrN SSR NNNrNrNN = RRcppppcppc× 100% (Equation 2) […]
fragment should cause upon binding. 100% response would be 1:1 binding wit h levels above 100% implying over-stoichiometric binding. […]
Fragment library screening to identify small molecule binders

NK1 [2] = target: T1, NK1; assay: SPR steady-state binding to immobilized NK1 (Biacore T100); design: made in house; host or cells: Pichia pastoris; conditions: for Kd: read-out: KD
Procedure: Binding constants of piperazine-like compounds and fragments were determined using a Biacore T100 instrument. NK1 was immobilized on a CM5 chip by amine coupling to a density of 6000 RU. Compounds were stored as 100 mM stock solutions in water and serial dilutions were prepared in the running buffer (PBS pH 7.4, 0.05% Tween 20). The compound solutions were injected onto the surface of the chip at a flow rate of 30 μL min^–1, contact time was 1 min and dissociation time 1 min. Sensorgrams were analysed using the Biacore T100 evaluation software and the binding constants determined.

[3] = fragments 500 μM (ESI Tables S3-S7)
[4] = steady-state binding constant from SPR (ESI Tables S3-S7)
[5] = initial fragment screening, fragments 500 μM (Table 3)
[6] = steady-state binding constant from SPR, fragment hits (Table 3, text)
[7] = steady-state binding constant from SPR, MB605-related compounds (Table 4)

T1 sequence (P14210 32-210 isoform P14210-6 limits assumed): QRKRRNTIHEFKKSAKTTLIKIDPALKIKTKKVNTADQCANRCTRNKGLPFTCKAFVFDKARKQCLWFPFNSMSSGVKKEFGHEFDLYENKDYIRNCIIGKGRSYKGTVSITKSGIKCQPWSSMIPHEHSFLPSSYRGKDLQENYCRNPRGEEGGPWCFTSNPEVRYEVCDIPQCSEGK

SMILES: Cc1csc(C(=O)O)c1 [MB921]
- Ranking order (NK1 [1]): 52
- SPR response (NK1 [1]; [3]): 49%

SMILES: CCOC(=O)c1cnc2n(c1=O)CCS2 [MB415]
- Ranking order (NK1 [1]): 58
- SPR response (NK1 [1]; [3]): 37%

SMILES: CC1CCN(C(=O)C2CCCCN2)CC1 (centres unmarked) [MB1015]
- Ranking order (NK1 [1]): 60
- SPR response (NK1 [1]; [3]): 35%

SMILES: Cc1nc(C#N)cs1 [MB1250]
- Ranking order (NK1 [1]): 3
- SPR response (NK1 [1]; [3]): 126%
- Kd (NK1 [2]; [4]): 1.8 mM

SMILES: CCCc1ccc(C(C)=O)cc1 [MB1315]
- Ranking order (NK1 [1]): 47
- SPR response (NK1 [1]; [3]): 52%
- SPR response (NK1 [1]; [5]): 52%
- Kd (NK1 [2]; [6]): 0.94 ± 0.09 mM

SMILES: OC12CC3CC(CC(C3)C1)C2 [MB405]
- Ranking order (NK1 [1]): 40
- SPR response (NK1 [1]; [3]): 56%

SMILES: CN(C)C(=O)c1ccc2nccnc2c1 [MB1058]
- Ranking order (NK1 [1]): 29
- SPR response (NK1 [1]; [3]): 63%

SMILES: Cc1cc(N)[nH]n1 [MB936]
- Ranking order (NK1 [1]): 39
- SPR response (NK1 [1]; [3]): 56%
- Kd (NK1 [2]; [4]): 30 mM

SMILES: COc1ccc(C#N)cn1 [MB1261]
- Ranking order (NK1 [1]): 12
- SPR response (NK1 [1]; [3]): 95%
- SPR response (NK1 [1]; [5]): 95%
- Kd (NK1 [2]; [6]): 0.35 ± 0.04 mM

SMILES: Cc1nc(-c2ccc(C#N)cc2)cs1 [MB1236]
- Ranking order (NK1 [1]): 19
- SPR response (NK1 [1]; [3]): 83%
- Kd (NK1 [2]; [4]): 1.2 mM

SMILES: Cc1cccc(CN)c1C [MB1274]
- Ranking order (NK1 [1]): 7
- SPR response (NK1 [1]; [3]): 105%
- Kd (NK1 [2]; [4]): 1.6 mM

SMILES: FC(F)(F)c1cc[nH]n1 [MB925]
- Ranking order (NK1 [1]): 48
- SPR response (NK1 [1]; [3]): 52%
- Kd (NK1 [2]; [4]): 1.3 mM

SMILES: Cc1nc(C(C)(C)C)cs1 [MB887]
- Ranking order (NK1 [1]): 32
- SPR response (NK1 [1]; [3]): 62%

SMILES: Cc1cccc(C)c1C#N [MB1283]
- Ranking order (NK1 [1]): 13
- SPR response (NK1 [1]; [3]): 94%
- KD (NK1 [2]; [6]): lowest affinity

SMILES: Cc1cccc(CO)n1 [MB389]
- Ranking order (NK1 [1]): 23
- SPR response (NK1 [1]; [3]): 72%
- Kd (NK1 [2]; [4]): 4.32 mM

SMILES: CC1(C(=O)O)CC2C=CC1C2 (centres unmarked) [MB385]
- Ranking order (NK1 [1]): 42
- SPR response (NK1 [1]; [3]): 54%

SMILES: NC(=O)c1ccc(-c2csnn2)cc1 [MB414]
- Ranking order (NK1 [1]): 50
- SPR response (NK1 [1]; [3]): 50%

SMILES: CC(C)(N)CN1CCCC1 [MB1017]
- Ranking order (NK1 [1]): 71
- SPR response (NK1 [1]; [3]): 26%

SMILES: Nc1cccc(S(N)(=O)=O)c1 [MB409]
- Ranking order (NK1 [1]): 59
- SPR response (NK1 [1]; [3]): 36%

SMILES: CN(C)C(=O)C1CCOCC1 [MB1065]
- Ranking order (NK1 [1]): 57
- SPR response (NK1 [1]; [3]): 38%

SMILES: COC(=O)c1ccc(C)c(Cl)c1 [MB1307]
- Ranking order (NK1 [1]): 31
- SPR response (NK1 [1]; [3]): 62%

SMILES: CCc1cccc(C(C)=O)c1 [MB1300]
- Ranking order (NK1 [1]): 14
- SPR response (NK1 [1]; [3]): 93%

SMILES: COc1cccc(OC)c1SC [MB894]
- Ranking order (NK1 [1]): 51
- SPR response (NK1 [1]; [3]): 49%

SMILES: N#CCCNCC1CCCO1 (centres unmarked) [MB975]
- Ranking order (NK1 [1]): 65
- SPR response (NK1 [1]; [3]): 33%

SMILES: O=C(C1CCCCO1)N1CCCC1 (centres unmarked) [MB1067]
- Ranking order (NK1 [1]): 68
- SPR response (NK1 [1]; [3]): 28%

SMILES: O=C(O)c1ccc2[nH]ncc2c1 [AT0541]
- Ranking order (NK1 [1]): 38
- SPR response (NK1 [1]; [3]): 56%

SMILES: CSc1ccc(C(=O)O)s1 [MB1217]
- Ranking order (NK1 [1]): 49
- SPR response (NK1 [1]; [3]): 50%

SMILES: COC(=O)CSc1ccccc1 [MB1308]
- Ranking order (NK1 [1]): 34
- SPR response (NK1 [1]; [3]): 60%

SMILES: Cn1ccc(C(F)(F)F)n1 [MB926]
- Ranking order (NK1 [1]): 66
- SPR response (NK1 [1]; [3]): 30%

SMILES: COC(=O)c1scc(C)c1Cl [MB916]
- Ranking order (NK1 [1]): 64
- SPR response (NK1 [1]; [3]): 34%

SMILES: O=C(O)CCc1cccs1 [5928-51-8, 2-thiophenepropanoic acid]
- Kd (NK1 [2]; [7]): 1.1 ± 0.3 mM

SMILES: O=P(O)(O)CCc1ccccc1 [4672-30-4, 2-phenylethyl phosphonic acid]
- Kd (NK1 [2]; [7]): 2.2 ± 0.4 mM

SMILES: Cc1ncsc1C(=O)O [MB996]
- Ranking order (NK1 [1]): 56
- SPR response (NK1 [1]; [3]): 38%

SMILES: Cc1noc(N)c1C [MB1136]
- Ranking order (NK1 [1]): 55
- SPR response (NK1 [1]; [3]): 39%

SMILES: COC(=O)c1ccc(F)cc1Cl [MB1301]
- Ranking order (NK1 [1]): 25
- SPR response (NK1 [1]; [3]): 70%

SMILES: O=C(O)CCc1cc2ccccc2o1 [T5480685]
- Kd (NK1 [2]; [7]): 0.7 ± 0.2 mM

SMILES: O=C(O)CCc1ccccc1 [501-520-0, hydrocinnamic acid]
- Kd (NK1 [2]; [7]): 2.2 ± 0.9 mM

SMILES: CCC1CCC(N)CC1 (centres unmarked) [MB1016]
- Ranking order (NK1 [1]): 61
- SPR response (NK1 [1]; [3]): 35%

SMILES: N#CCOc1cccc(C(F)(F)F)c1 [MB1251]
- Ranking order (NK1 [1]): 27
- SPR response (NK1 [1]; [3]): 66%

SMILES: O=C(O)C1CCNCC1 [MB1129]
- Ranking order (NK1 [1]): 67
- SPR response (NK1 [1]; [3]): 30%

SMILES: O=C(O)CCc1ccc(-c2ccccc2F)o1 [T5445870]
- Kd (NK1 [2]; [7]): 2.1 ± 0.3 mM

SMILES: Nc1ccc(OC(F)(F)F)cc1 [MB1100]
- Ranking order (NK1 [1]): 70
- SPR response (NK1 [1]; [3]): 27%

SMILES: COC(=O)c1sc(C(C)(C)C)cc1N [MB914]
- Ranking order (NK1 [1]): 63
- SPR response (NK1 [1]; [3]): 34%

SMILES: O=C(O)c1ccccc1C(=O)c1ccc(F)cc1 [MB900]
- Ranking order (NK1 [1]): 69
- SPR response (NK1 [1]; [3]): 28%

SMILES: CC(=O)c1ccc(OC(F)(F)F)cc1 [MB1291]
- Ranking order (NK1 [1]): 26
- SPR response (NK1 [1]; [3]): 68%

SMILES: O=C(C1CCOCC1)N1CCCCC1 [MB1066]
- Ranking order (NK1 [1]): 62
- SPR response (NK1 [1]; [3]): 34%

SMILES: NC(=O)Cc1ccc(O)cc1 [MB1174]
- Ranking order (NK1 [1]): 53
- SPR response (NK1 [1]; [3]): 43%

SMILES: COC(=O)c1ccccc1OC(F)(F)F [MB1292]
- Ranking order (NK1 [1]): 30
- SPR response (NK1 [1]; [3]): 63%

SMILES: NC(=O)Cc1ccc(F)cc1Cl [MB1321]
- Ranking order (NK1 [1]): 28
- SPR response (NK1 [1]; [3]): 65%

SMILES: Cc1cc(N)no1 [MB397]
- Ranking order (NK1 [1]): 20
- SPR response (NK1 [1]; [3]): 81%

SMILES: Nc1cccc(OC(F)(F)F)c1 [MB406]
- Ranking order (NK1 [1]): 54
- SPR response (NK1 [1]; [3]): 42%

SMILES: CC(=O)NCc1cccnc1 [MB1317]
- Ranking order (NK1 [1]): 35
- SPR response (NK1 [1]; [3]): 60%
